Source: patent US7595401B2, “Therapeutic compounds and their use in cancer” (Myriad Pharmaceuticals, Inc., priority 2006, dated 2009)

What follows are compounds tested on purified human Hsp90 (assay: Binding Assay: fluorescence polarization with BODIPY-labeled geldanamycin). Conditions: 5 μM compound, BODIPY-GM 10 nM, Hsp90 30 nM.
In short: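 Compounds in 2% DMSO final compete with 10 nM BODIPY-GM for 30 nM purified human Hsp90, incubated overnight at room temperature in pH 7.3 HEPES buffer containing Na2MoO4 and DTT. Polarization (mP, ex/em 485/530) normalized to DMSO gives percent inhibition; autofluorescence-confounded data excluded.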
With `CS(=O)(=O)N1CCC(CCn2cnc(N)c3nc(Sc4cc5c(cc4Br)OCO5)nc2-3)CC1` [Example 366, 8-[(6-Bromo-1,3-benzodioxol-5-yl)thio]-3-{2-[1-(methylsulfonyl)piperidin-4-yl]ethyl}-3H-purin-6-amine] the “% Inhibition at 5 μM Compound Concentration” value (“% Inhibition” for short) was 20%.
`CS(=O)(=O)N1CCCCC1CCn1cnc(N)c2nc(Sc3cc4c(cc3Br)OCO4)nc1-2` (centres unmarked) [Example 373, 8-[(6-Bromo-1,3-benzodioxol-5-yl)thio]-3-{2-[1-(methylsulfonyl)piperidin-2-yl]ethyl}-3H-purin-6-amine] was tested, and the “% Inhibition” value was 15%.
In the case of `Nc1ncn(CCn2ccnc2)c2nc(Sc3cc4c(cc3Br)OCO4)nc1-2` [Example 380, 8-[(6-Bromo-1,3-benzodioxol-5-yl)thio]-3-[2-(1H-imidazol-1-yl)ethyl]-3H-purin-6-amine], the “% Inhibition” value is reported as 4%.

Same assay, conditions: BODIPY-GM 10 nM, Hsp90 30 nM
`CC(C)(C)OC(=O)N1CCOC(CCn2c(Sc3cc4c(cc3Br)OCO4)nc3c(N)ncnc32)C1` (centres unmarked) [Example 367, tert-Butyl 2-(2-{6-amino-8-[(6-bromo-1,3-benzodioxol-5-yl)thio]-9H-purin-9-yl}ethyl)morpholine-4-carboxylate] showed an IC50 of over 25000 nM.
With `CS(=O)(=O)N1CCCC(CCn2c(Sc3cc4c(cc3Br)OCO4)nc3c(N)ncnc32)C1` (centres unmarked) [Example 369, 8-[(6-Bromo-1,3-benzodioxol-5-yl)thio]-9-{2-[1-(methylsulfonyl)piperidin-3-yl]ethyl}-9H-purin-6-amine] the IC50 was 35 nM.
`CS(=O)(=O)N1CCCC(CCn2cnc(N)c3nc(Sc4cc5c(cc4Br)OCO5)nc2-3)C1` (centres unmarked) [Example 370, 8-[(6-Bromo-1,3-benzodioxol-5-yl)thio]-3-{2-[1-(methylsulfonyl)piperidin-3-yl]ethyl}-3H-purin-6-amine] gave an IC50 of 600 nM.
`COc1ccc(OC)c(Sc2nc3c(N)ncnc3n2CCC2CCCCN2S(C)(=O)=O)c1` (centres unmarked) [Example 371, 8-[(2,5-Dimethoxyphenyl)thio]-9-{2-[1-(methylsulfonyl)piperidin-2-yl]ethyl}-9H-purin-6-amine] showed an IC50 of 700 nM.
With `CS(=O)(=O)N1CCCCC1CCn1c(Sc2cc3c(cc2Br)OCO3)nc2c(N)ncnc21` (centres unmarked) [Example 372, 8-[(6-Bromo-1,3-benzodioxol-5-yl)thio]-9-{2-[1-(methylsulfonyl)piperidin-2-yl]ethyl}-9H-purin-6-amine] the IC50 was 100 nM.
In the case of `CS(=O)(=O)N1CCC(CCn2c(Sc3cc4c(cc3Br)OCO4)nc3c(N)ncnc32)CC1` [Example 378, 8-[(6-Bromo-1,3-benzodioxol-5-yl)thio]-9-{2-[1-(methylsulfonyl)piperidin-4-yl]ethyl}-9H-purin-6-amine], the IC50 is reported as 240 nM.
Compound `Nc1ncnc2c1nc(Sc1cc3c(cc1Br)OCO3)n2CCn1ccnc1` [Example 381, 8-[(6-Bromo-1,3-benzodioxol-5-yl)thio]-9-[2-(1H-imidazol-1-yl)ethyl]-9H-purin-6-amine] has an IC50 of 390 nM.
`CC(=O)N1CCN(CCn2c(Sc3cc4c(cc3Br)OCO4)nc3c(N)ncnc32)CC1` [Example 382, 9-[2-(4-Acetylpiperazin-1-yl)ethyl]-8-[(6-bromo-1,3-benzodioxol-5-yl)thio]-9H-purin-6-amine] was tested, and the IC50 was 140 nM.
With `CC(=O)N1CCN(CCn2cnc(N)c3nc(Sc4cc5c(cc4Br)OCO5)nc2-3)CC1` [Example 383, 3-[2-(4-Acetylpiperazin-1-yl)ethyl]-8-[(6-bromo-1,3-benzodioxol-5-yl)thio]-3H-purin-6-amine] the IC50 was 21000 nM.
Work on `COc1ccc(OC)c(Sc2nc3c(N)ncnc3n2CCC2(F)C(F)(F)C(F)(F)C(F)(F)C(F)(F)C2(F)F)c1` [Example 384, 8-[(2,5-Dimethoxyphenyl)thio]-9-[2-(undecafluorocyclohexyl)ethyl]-9H-purin-6-amine] yielded an IC50 of over 1000 nM.
`CCCN1CCCCC1CCn1c(Sc2cc3c(cc2Br)OCO3)nc2c(N)ncnc21` (centres unmarked) [Example 386, 8-[(6-Bromo-1,3-benzodioxol-5-yl)thio]-9-[2-(1-propylpiperidin-2-yl)ethyl]-9H-purin-6-amine] showed an IC50 of 110 nM.
